Data as given in US12551479B2, “Acyl-protein thioesterase inhibitor for the treatment and/or prevention of Huntington's disease” (UNIVERSITÉ GRENOBLE ALPES, priority 2019, dated 2026).
pIC50: −log10 of the molar value.

Assays:
[1] = system: StHdh^Q111/Q111 cells; assay: RUSH system: GPI-SBP-mCherry trafficking from endoplasmic reticulum to Golgi and plasma membrane; format: cell-based, mouse
Description: The RUSH plasmid (Boncompain et al., 2012) is a bicistronic plasmid (SEQ ID NO: 2) allowing the expression of two parts of the system: the reticulum-specific anchor (KDEL-streptavidin), and the reporter part (GPI-SBP-mCh). The addition of biotin in the extracellular medium (40 μM) induces the unhooking of the reporter part of the anchor, thus allowing to follow the intracellular trafficking in a synchronized way within a cell population from the endoplasmic reticulum.
For striatal StHdh cells, acute treatment was performed at 10 μM for 1 hour before and during the acquisition time. For neurons within the microchambers, treatments were started at DIV2 until DIV12 every day at 1 μM in each compartment of the microfluidic device.
The inventors used the Retention Using Selective Hooks (RUSH) system to study intracellular dynamics from the ER to the plasma membrane in Huntington's disease condition (FIG. 1A). RUSH allows tracking the synchronous release of a reporter molecule from specific intracellular compartments. In the present experiment, the inventors followed the release of glycosylphosphatidylinositol (GPI)-anchored fluorescence protein mCherry, and fused to streptavidin-binding peptide (SBP) that was retained into the ER compartment by the interaction with a “hook” protein composed of the KDEL motif fused to streptavidin. In the absence of biotin, the GPI-SBP-mCherry localizes at the ER (FIG. 1A). Addition of biotin to the cells expressing GPI-SBP-mCherry and KDEL-streptavidin causes a synchronous release of the GPI-SBP-mCherry reporter from the hook which then migrates to the Golgi apparatus and later to the plasma membrane.
To study these dynamics in the context of Huntington's disease, the inventors transfected the GPI-SBP-mCherry-KDEL-streptavidin construct as shown in SEQ ID NO:2 into immortalized striatal cells from Hdh^Q111/Q111 and Hdh^Q7/Q7 mice, referred to as StHdh^Q111/Q111 and StHdh^Q7/Q7 cells respectively. They then monitored GPI-SBP-mCherry trafficking by real-time imaging for 90 minutes. To assess intracellular trafficking dynamics, they quantified the kinetics of appearance and disappearance of mCherry fluorescence in the Golgi apparatus over time (FIGS. 1B and C). Shortly after biotin addition, GPI leaves the ER and moves to the Golgi apparatus. The inventors quantified fluorescence at the Golgi and observed that in StHdh^Q7/Q7 cells, the peak fluorescence was at 16.6 minutes, whereas it was delayed to 23.6 minutes in StHdh^Q111/Q111 cells (FIG. 1B). Their observations indicate a reduced trafficking of GPI from the ER to the Golgi apparatus as well as prolonged retention of GPI in the Golgi as evidenced by a longer period of GPI fluorescence in the Golgi apparatus.

[2] = system: melanoma cells; conditions: studies of Vujic et al., 2015; cited from earlier work
[3] = molecular target: APT2 (Homo sapiens, UniProt O95372); conditions: read-out: IC50APT2; cited from earlier work
[4] = molecular target: APT1 (Homo sapiens, UniProt O75608); conditions: read-out: IC50APT1; cited from earlier work
[5] = StHdh^Q111/Q111 cells, inhibitor 10 μM 1 hour or siRNA gene silencing

Chain of APT2 (O95372 whole entry): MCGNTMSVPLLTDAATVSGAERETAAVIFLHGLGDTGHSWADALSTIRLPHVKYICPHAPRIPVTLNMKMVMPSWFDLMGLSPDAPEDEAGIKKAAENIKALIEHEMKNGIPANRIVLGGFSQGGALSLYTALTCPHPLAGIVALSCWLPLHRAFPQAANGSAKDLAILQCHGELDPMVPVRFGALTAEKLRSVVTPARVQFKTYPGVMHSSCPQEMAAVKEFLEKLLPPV
Chain of APT1 (O75608 whole entry): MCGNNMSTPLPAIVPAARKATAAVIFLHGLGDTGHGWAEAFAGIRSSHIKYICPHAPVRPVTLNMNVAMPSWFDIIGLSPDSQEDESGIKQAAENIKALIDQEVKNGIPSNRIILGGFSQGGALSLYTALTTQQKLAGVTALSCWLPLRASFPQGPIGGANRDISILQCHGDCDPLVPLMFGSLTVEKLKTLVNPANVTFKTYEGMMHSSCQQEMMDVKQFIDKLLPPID

Row | Compound | effect on kinetics from the endoplasmic reticulum to the Golgi apparatus [1, 5] | effect on retention in the Golgi [1, 5] | effect on melanoma cells [2] | time after biotin addition for the appearance of the fluorescence peak in the Golgi ([1]; StHdh^Q111/Q111 cells treated 1 hour with 10 μM, without treatment 23.2-23.3 min, StHdh^Q7/Q7 16.6 min) [min] | time for fluorescence to leave the Golgi apparatus (retention time in the Golgi) ([1]; StHdh^Q111/Q111 cells treated 1 hour with 10 μM, without treatment 24-25.4 min, wild-type cells 15.1 min) [min] | pIC50 [3] | pIC50 [4]
1 | COc1ccc(N2CCN(C(=O)c3cc4c(s3)-c3ccccc3S(=O)(=O)C4)CC2)cc1 [ML-349] | no effect | no effect | no biologically significant effect |  |  |  | 
2 | CCCCCCCCCC[C@@H]1C(=O)O[C@H]1CCc1ccc(OC)c(OC)c1 [Palmostatin B] |  |  |  | 18 | 21.3 | 7.42 | 8.27
